We go through 22 compounds from ChEMBL document CHEMBL1857833, “Screening and optimization of specific chemical series against human African Trypanosomiasis (HAT)”.

Values after ≈ are worked out from the molar mass of the structure shown.

A short description of data set [1]: in vitro. As to conditions: mouse, liver microsomes, t (1 / 2).
Description: DNDI: half life in mouse liver microsomes at a concentration of 1uM
Data set [2] concerns Trypanosoma brucei. The data set can be described thus: DNDI: Inhibition of Human African Trypanosomiasis, SBRI 427, in vitro. The class given is functional, organism-based. Conditions: Trypanosoma brucei, SBRI 427; read-out: IC50.
The conditions of data set [3]: mouse, microsomes, 1 µM.
Description: DNDI: in vitro intrinsic clearance in mouse liver microsomes at a concentration of 1uM
The nature of data set [4]: DNDI: Cytotoxicity against L929 mouse fibroblasts, 72 hour. Format: toxicity, cell-based. Conditions: mouse, L929 mouse fibroblasts.
Data set [5] in a line: DNDI: Cytotoxicity against L929 mouse fibroblasts, CYTO-SP, 24 hour. Format: toxicity, cell-based. As to conditions: mouse, L929 mouse fibroblasts.

In turn, `CCc1ccc(Oc2ncccc2/C(=N\O)NC2CCCC[C@H]2N)cc1` (some centres undefined) registered a half-life at 1 µM in data set [1] of 353 min. Moreover, the IC50 in data set [2] is above 5 µg/mL. Moreover, the CLint in vitro in data set [3] was determined as 2 µL/min/mg. Also, the half-inhibitory concentration (IC50) at 72 h in data set [4] is above 10 µg/mL.

`CC(C)(C)CNCc1coc(-c2ccc(OCC(C)(C)C)cc2)n1` yielded a half-life at 1 µM in data set [1] of 267 min. For the same compound, the half-maximal inhibitory concentration (IC50) in data set [2] is 0.42 µg/mL (≈ 1.27 µM). Also, the CLint in vitro in data set [3] came to 3 µL/min/mg. This compound also gave an IC50 at 72 h in data set [4] of 1.35 µg/mL (≈ 4.09 µM).

`CCCCCC(C)NCc1coc(-c2ccc(C)c(OC)c2)n1` (centres undefined) gave a half-life at 1 µM in data set [1] of 10 min. The 50% inhibitory concentration (IC50) in data set [2] is 1.6 µg/mL (≈ 5.06 µM). The same compound yielded a CLint in vitro in data set [3] of 87 µL/min/mg. In addition, the IC50 at 72 h in data set [4] stood at 5.27 µg/mL (≈ 16.7 µM).

With `CCCCc1ccc(-c2nc(CN3CCN(C)CC3)co2)cc1`, in data set [1], the half-life at 1 µM stood at 27 min. The IC50 in data set [2] is 2.22 µg/mL (≈ 7.08 µM). This compound had a CLint in vitro in data set [3] of 31 µL/min/mg. The IC50 at 72 h in data set [4] is 3.75 µg/mL (≈ 12 µM).

Take `CC(C)Oc1ccc(-c2nc(CNC[C@@H]3CC[C@H]4C[C@@H]3C4(C)C)co2)cc1`: the half-life at 1 µM in data set [1] came to 19 min. Besides, the IC50 in data set [2] was 1.06 µg/mL (≈ 2.88 µM). In data set [3], this compound had a CLint in vitro of 45 µL/min/mg. Besides, in data set [4], inhibition was half-maximal at 1.36 µg/mL (≈ 3.69 µM) (IC50 at 72 h).

For `CC1(C)[C@H]2CC[C@@H](CNCc3coc(-c4sccc4Cl)n3)[C@@H]1C2`, the IC50 in data set [2] is above 5 µg/mL. In data set [5], this compound displayed an IC50 at 24 h above 50 µg/mL. The compound also displayed an IC50 at 72 h in data set [4] above 50 µg/mL.

Compound `CCCCc1ccc(-c2nc(CNC(C)C)co2)cc1` showed a half-life at 1 µM in data set [1] of 17 min. In addition, the IC50 in data set [2] was 2.22 µg/mL (≈ 8.15 µM). In data set [3], this compound returned a CLint in vitro of 50 µL/min/mg. The IC50 at 72 h in data set [4] came to 5.7 µg/mL (≈ 20.9 µM).

Take `CCCCCC(C)NCc1coc(-c2cccc(F)c2F)n1` (centres undefined): the half-inhibitory concentration (IC50) in data set [2] came out at 4.08 µg/mL (≈ 13.2 µM). In data set [5], this compound had an IC50 at 24 h above 50 µg/mL. Also, it took 10.7 µg/mL (≈ 34.5 µM) to reach half-maximal inhibition in data set [4] (IC50 at 72 h).

The compound `CCCCCC(C)NCc1coc(-c2ccc(Oc3ccc(C)cc3)cc2)n1` (centres undefined) yielded a half-life at 1 µM in data set [1] of 70 min. Besides, the IC50 in data set [2] was determined as 0.3 µg/mL (≈ 0.793 µM). Also, the CLint in vitro in data set [3] worked out at 12 µL/min/mg. In data set [4], this compound registered an IC50 at 72 h of 1.42 µg/mL (≈ 3.75 µM).

Compound `CCCCc1ccc(-c2nc(CNCc3ccc(OC)cc3)co2)cc1` had a half-life at 1 µM in data set [1] of 53 min. In data set [3], this compound registered a CLint in vitro of 16 µL/min/mg. In data set [4], the IC50 at 72 h was determined as 3.13 µg/mL (≈ 8.93 µM).

As to `COc1ccccc1CNC(c1nc(-c2ccccc2)c(N2CCOCC2)o1)C1CC1` (centres undefined), the half-life at 1 µM in data set [1] came to 3 min. In data set [2], the IC50 turned out to be 5 µg/mL (≈ 11.9 µM). Besides, the CLint in vitro in data set [3] amounted to 300 µL/min/mg. The compound also returned an IC50 at 72 h in data set [4] above 10 µg/mL.

On to `CCCCCC(C)NCc1coc(Cc2ccc(OC)cc2)n1` (centres undefined), for which the half-life at 1 µM in data set [1] was 16 min. Besides, the IC50 in data set [2] is 3.24 µg/mL (≈ 10.2 µM). This compound also yielded a CLint in vitro in data set [3] of 55 µL/min/mg. In data set [4], this compound came in with an IC50 at 72 h of 10 µg/mL (≈ 31.6 µM).

Turning to `CCCCCC(C)NCc1coc(-c2c(F)cccc2F)n1` (centres undefined), the IC50 in data set [2] stood at 4.83 µg/mL (≈ 15.7 µM). Besides, the IC50 at 24 h in data set [5] was above 50 µg/mL. Also, the IC50 at 72 h in data set [4] came out at 18.7 µg/mL (≈ 60.6 µM).

With `CCCCCC(C)NCc1coc(-c2ccc(OCCc3ccccc3)cc2)n1` (centres undefined), the half-life at 1 µM in data set [1] was 22 min. Further, the half-maximal inhibitory concentration (IC50) in data set [2] came out at 0.39 µg/mL (≈ 0.994 µM). The same compound yielded a CLint in vitro in data set [3] of 39 µL/min/mg. This compound also had an IC50 at 72 h in data set [4] of 0.72 µg/mL (≈ 1.83 µM).

Regarding `CCCCCC(C)NCc1coc(-c2ccc(OCc3ccc(C)cc3)cc2)n1` (centres undefined), the half-life at 1 µM in data set [1] is 64 min. Besides, in data set [2], the 50% inhibitory concentration (IC50) worked out at 0.31 µg/mL (≈ 0.79 µM). Also, the CLint in vitro in data set [3] is 13 µL/min/mg. Besides, the IC50 at 72 h in data set [4] is 1.27 µg/mL (≈ 3.24 µM).

For the compound `CCCCCC(C)NCc1coc(-c2ccc(Oc3ccc(F)cc3)cc2)n1` (centres undefined), in data set [1], the half-life at 1 µM was determined as 63 min. In addition, the IC50 in data set [2] was found to be 0.44 µg/mL (≈ 1.15 µM). In addition, the CLint in vitro in data set [3] amounted to 13 µL/min/mg. Also, the IC50 at 72 h in data set [4] worked out at 1.63 µg/mL (≈ 4.26 µM).

With `Cc1ccc(/C(=N/O)NC2CCCCC2)c(Oc2c(F)cccc2F)n1`, the half-life at 1 µM in data set [1] is 3 min. Further, the IC50 in data set [2] is 1.05 µg/mL (≈ 2.91 µM). In data set [3], the CLint in vitro stood at 255 µL/min/mg. The same compound yielded an IC50 at 72 h in data set [4] above 10 µg/mL.

In the case of `CCCCCC(C)NCc1coc(-c2ccc(OCCCC)c(F)c2)n1` (centres undefined), the half-life at 1 µM in data set [1] is 75 min. Moreover, the IC50 in data set [2] was determined as 0.37 µg/mL (≈ 1.02 µM). Besides, the CLint in vitro in data set [3] came out at 11 µL/min/mg. For the same compound, the IC50 at 72 h in data set [4] was found to be 0.73 µg/mL (≈ 2.01 µM).

For `Cc1ccc(/C(=N/O)Nc2cccc(F)c2)c(Oc2ccc(C(C)(C)C)cc2)n1`, the half-life at 1 µM in data set [1] was found to be 26.8 min. In addition, the IC50 in data set [2] was determined as 0.32 µg/mL (≈ 0.813 µM). Further, the CLint in vitro in data set [3] was determined as 31.75 µL/min/mg. Further, the IC50 at 72 h in data set [4] amounted to 5.39 µg/mL (≈ 13.7 µM).

The compound `CCCCc1ccc(-c2nc(CNC(C)CC)co2)cc1` (centres undefined) returned a half-life at 1 µM in data set [1] of 20 min. Moreover, in data set [2], the IC50 came out at 0.74 µg/mL (≈ 2.58 µM). Further, the CLint in vitro in data set [3] was found to be 42 µL/min/mg. Further, the IC50 at 72 h in data set [4] turned out to be 2.75 µg/mL (≈ 9.6 µM).

In turn, `CC(C)Oc1ccc(-c2nc(CN[C@@H]3C[C@@H]4C[C@H]([C@H]3C)C4(C)C)co2)cc1` yielded a half-life at 1 µM in data set [1] of 79 min. Also, in data set [2], the half-inhibitory concentration (IC50) is 1.37 µg/mL (≈ 3.72 µM). Moreover, in data set [3], the CLint in vitro came out at 11 µL/min/mg. This compound came in with an IC50 at 72 h in data set [4] of 1.9 µg/mL (≈ 5.16 µM).

Turning to `CCCCCC(C)NCc1coc(-c2ccc(OCc3ccc(Cl)cc3)cc2)n1` (centres undefined), the half-life at 1 µM in data set [1] amounted to 41 min. The IC50 in data set [2] was found to be 0.47 µg/mL (≈ 1.14 µM). For the same compound, in data set [3], the CLint in vitro amounted to 21 µL/min/mg. Besides, the IC50 at 72 h in data set [4] stood at 1.67 µg/mL (≈ 4.04 µM).
